Test results: PMC6704710, “Preclinical evaluation of 3D185, a novel potent inhibitor of FGFR1/2/3 and CSF-1R, in FGFR-dependent and macrophage-dominant cancer models” (Journal of Experimental & Clinical Cancer Research : CR, 2019)

Experiments:
EphB1(h) = target: T1, EphB1(h) (Homo sapiens, UniProt P54762); test: Eurofins kinase panel; format: biochemical; conditions: read-out: Inhibition rate (%)
T1 construct: purchased Eurofins (KinaseProfiler)
T1 sequence (P54762 18-984): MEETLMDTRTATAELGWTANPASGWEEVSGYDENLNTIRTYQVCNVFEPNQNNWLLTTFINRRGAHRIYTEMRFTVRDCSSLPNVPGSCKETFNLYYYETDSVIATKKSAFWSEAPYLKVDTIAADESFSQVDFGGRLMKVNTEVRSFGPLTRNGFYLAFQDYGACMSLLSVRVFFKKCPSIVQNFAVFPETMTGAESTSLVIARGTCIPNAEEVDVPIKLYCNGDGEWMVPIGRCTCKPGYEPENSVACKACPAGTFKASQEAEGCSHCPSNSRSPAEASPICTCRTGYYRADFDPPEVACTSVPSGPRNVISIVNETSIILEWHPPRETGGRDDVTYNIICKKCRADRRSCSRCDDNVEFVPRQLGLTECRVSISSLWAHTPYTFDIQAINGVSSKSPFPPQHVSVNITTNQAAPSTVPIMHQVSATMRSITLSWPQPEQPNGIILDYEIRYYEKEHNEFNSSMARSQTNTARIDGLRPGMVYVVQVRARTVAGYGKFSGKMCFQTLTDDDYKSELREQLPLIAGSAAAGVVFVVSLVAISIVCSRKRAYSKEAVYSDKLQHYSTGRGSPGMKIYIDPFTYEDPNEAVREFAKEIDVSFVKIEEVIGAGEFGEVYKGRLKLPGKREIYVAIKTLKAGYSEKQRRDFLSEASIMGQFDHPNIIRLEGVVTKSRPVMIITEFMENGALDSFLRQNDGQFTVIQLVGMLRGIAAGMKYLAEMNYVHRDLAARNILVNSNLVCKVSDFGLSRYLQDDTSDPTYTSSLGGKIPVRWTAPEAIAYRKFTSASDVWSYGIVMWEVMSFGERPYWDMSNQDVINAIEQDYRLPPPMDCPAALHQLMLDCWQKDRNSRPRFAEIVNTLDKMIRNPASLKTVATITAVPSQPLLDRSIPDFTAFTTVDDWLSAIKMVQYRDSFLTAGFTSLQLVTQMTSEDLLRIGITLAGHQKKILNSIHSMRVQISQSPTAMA

Axl(h) = target: T2, Axl(h) (Homo sapiens, UniProt P30530); test: Eurofins kinase panel; format: biochemical; conditions: read-out: Inhibition rate (%)
T2 construct: purchased Eurofins (KinaseProfiler)
T2 sequence (P30530 26-894): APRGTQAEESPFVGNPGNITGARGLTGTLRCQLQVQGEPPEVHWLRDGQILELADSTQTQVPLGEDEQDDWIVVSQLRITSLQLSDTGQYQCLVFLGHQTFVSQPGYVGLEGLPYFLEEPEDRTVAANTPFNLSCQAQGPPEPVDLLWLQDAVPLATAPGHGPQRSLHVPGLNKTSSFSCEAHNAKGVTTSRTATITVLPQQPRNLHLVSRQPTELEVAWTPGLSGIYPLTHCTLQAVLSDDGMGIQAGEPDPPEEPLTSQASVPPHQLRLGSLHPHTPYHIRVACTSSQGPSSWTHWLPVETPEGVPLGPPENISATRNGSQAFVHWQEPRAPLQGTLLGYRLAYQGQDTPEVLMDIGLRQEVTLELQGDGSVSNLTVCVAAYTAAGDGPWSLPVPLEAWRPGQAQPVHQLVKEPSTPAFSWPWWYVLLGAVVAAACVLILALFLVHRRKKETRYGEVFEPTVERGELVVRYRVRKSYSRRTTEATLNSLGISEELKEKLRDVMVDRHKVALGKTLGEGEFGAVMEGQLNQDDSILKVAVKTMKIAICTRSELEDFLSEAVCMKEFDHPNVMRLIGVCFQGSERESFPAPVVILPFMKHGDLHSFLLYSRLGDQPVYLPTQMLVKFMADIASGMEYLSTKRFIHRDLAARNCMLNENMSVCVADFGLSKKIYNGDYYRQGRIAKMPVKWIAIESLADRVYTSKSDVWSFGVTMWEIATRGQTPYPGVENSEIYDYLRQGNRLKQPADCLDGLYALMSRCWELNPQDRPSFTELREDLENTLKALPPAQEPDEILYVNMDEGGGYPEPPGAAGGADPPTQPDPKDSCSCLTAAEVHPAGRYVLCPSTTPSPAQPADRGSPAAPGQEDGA

## COc1cc(OC)c(Cl)c(-c2ccc3c(NC(=O)c4ccc(N5CCNC(C)(C)C5)cc4)n[nH]c3n2)c1Cl [3D185]
EphB1(h); 10 nM
  inhibition at 0.01 µM: -9%
EphB1(h); 100 nM
  inhibition at 0.1 µM: 1%
EphB1(h); 1000 nM
  inhibition at 1 µM: 36%
Axl(h); 10 nM
  inhibition at 0.01 µM: -7%
Axl(h); 100 nM
  inhibition at 0.1 µM: -9%
Axl(h); 1000 nM
  inhibition at 1 µM: 26%
